What was measured:
Format in all cases: in vivo
Alopecurus myosuroides = assay: Field trial Example 1, successive application: damage on ALOMY
Description: (§1) Aminiopyralid was used as commercial aquaeous solution having an active ingredient concentration of 240 g/l (Milestone™). Metazachlor was used as a commercial suspension concentrate having an active ingredient concentration of 500 g/l (Butisan S®).
(§2) The performance of aminopyralid applied as an alone treatment at 15, 30 and 50 g a.i./ha applied as an early post emergence treatment and an post emergence treatment in comparison to two different applications including metazachlor at 500 g a.i./ha as an early post emergence application in succession of aminopyralid as a post emergence application at 15 and 30 g a.i./ha was assessed in an oilseed rape field trials.
(§3) The early post emergence treatment was applied by means of fine distributed nozzles at the growth stage (GS) of the crop BBCH 11-12.
(§4) The post emergence treatment was applied by means of fine distributed nozzles at the growth stage (GS) of the crop BBCH 13-14.
(§5) The test period extended over the autumn and spring season (205 days).
(§6) In the following experiments, the herbicidal activity for the individual herbicide compounds (solo application) and of the herbicidal succession was assessed 4 times:
(§7) The evaluation for the damage on undesired weeds caused by the chemical compositions was carried out using a scale from 0 to 100%, compared to the untreated control plants. Here, 0 means no damage and 100 means complete destruction of the plants.

Stellaria media [1] = assay: Field trial Example 1, successive application: damage on STEME
Description: as §1, §2, §3, §4, §5, §6, §7

Geranium pusillum = assay: Field trial Example 1, successive application: damage on GERPU
Description: as §1, §2, §3, §4, §5, §6, §7

Apera spica-venti = assay: Field trial Example 1, successive application: damage on APESV
Description: as §1, §2, §3, §4, §5, §6, §7

Anthemis arvensis = assay: Field trial Example 2, combined application: ANTAR
Method: as §1, §7
(§8) The value E, which is to be expected if the activity of the individual compounds is just additive, was calculated using the method of S. R. Colby (1967) “Calculating synergistic and antagonistic responses of herbicide combinations”, Weeds 15, p. 22 ff.
(§9) The performance of aminopyralid, applied as an alone treatment at […] and 15 g ai/ha, and the performance of metazachlor, applied as an alone treatment at 375 and 500 g ai/ha, as well as the mixtures of the both compounds have been assessed in winter oilseed rape field trials. The trials have been conducted in Germany at two locations.
(§10) Post emergence treatment was applied by means of fine distributed nozzels at the growth stage (GS/BBCH 11/12).

Stellaria media [2] = assay: Field trial Example 2, combined application: STEME; details: Aminopyralid 7.5 g ai/ha solo, 28 DAT
Method: as §1, §7, §8, §9, §10

Matricaria inodora = assay: Greenhouse trial, post-emergence: MATIN; details: post-emergence (Tables 7-9)
Method: The test plants have been seeded, separately for each species, in plastic containers in sandy loamy soil containing 5% organic matter.
For the post emergence treatment, the plants were first grown to the 2 leaf station (GS 12). Here, the herbicidal compositions were suspended or emulsified in water as distribution medium and sprayed using finely distributing nozzels.
The plants have been cultivated due to there individual requirements at 10-25° C. and 20-35° C. The plants were irrigated due to there necessity. […]
as §7
Calculation of expected activity of binary mixtures was done by using the Colby-Formula according to Example 1.

[3] = 15 g ai/ha, treatment A early post emergence, DAT 25/DALT 10
[4] = 15 g ai/ha, treatment A early post emergence, DAT 65/DALT 50
[5] = 15 g ai/ha, treatment A early post emergence, DAT 176/DALT 161
[6] = 15 g ai/ha, treatment B post emergence, DAT 25/DALT 10
[7] = 15 g ai/ha, treatment B post emergence, DAT 65/DALT 50
[8] = 15 g ai/ha, treatment B post emergence, DAT 176/DALT 161
[9] = 30 g ai/ha, treatment A early post emergence, DAT 25/DALT 10
[10] = 30 g ai/ha, treatment A early post emergence, DAT 65/DALT 50
[11] = 30 g ai/ha, treatment A early post emergence, DAT 176/DALT 161
[12] = 30 g ai/ha, treatment B post emergence, DAT 25/DALT 10
[13] = 30 g ai/ha, treatment B post emergence, DAT 65/DALT 50
[14] = 30 g ai/ha, treatment B post emergence, DAT 176/DALT 161
[15] = 50 g ai/ha, treatment A early post emergence, DAT 25/DALT 10
[16] = 50 g ai/ha, treatment A early post emergence, DAT 65/DALT 50
[17] = 50 g ai/ha, treatment A early post emergence, DAT 176/DALT 161
[18] = 50 g ai/ha, treatment B post emergence, DAT 25/DALT 10
[19] = 50 g ai/ha, treatment B post emergence, DAT 65/DALT 50
[20] = 50 g ai/ha, treatment B post emergence, DAT 176/DALT 161
[21] = aminopyralid 15 g ai/ha, treatment A, DAT 205/DALT 190
[22] = aminopyralid 15 g ai/ha, treatment B, DAT 205/DALT 190
[23] = aminopyralid 30 g ai/ha, treatment A, DAT 205/DALT 190
[24] = aminopyralid 30 g ai/ha, treatment B, DAT 205/DALT 190
[25] = aminopyralid 50 g ai/ha, treatment A, DAT 205/DALT 190
[26] = aminopyralid 50 g ai/ha, treatment B, DAT 205/DALT 190

Structure (SMILES): Nc1cc(Cl)nc(C(=O)O)c1Cl [aminopyralid, 4-amino-3,6-dichloropyridine-2-carboxylic acid]
- damage on ALOMY (Alopecurus myosuroides; [3]): 0%
- damage on ALOMY (Alopecurus myosuroides; [4]): 22%
- damage on ALOMY (Alopecurus myosuroides; [5]): 22%
- damage on ALOMY (Alopecurus myosuroides; [6]): 0%
- damage on ALOMY (Alopecurus myosuroides; [7]): 25%
- damage on ALOMY (Alopecurus myosuroides; [8]): 25%
- damage on ALOMY (Alopecurus myosuroides; [9]): 57%
- damage on ALOMY (Alopecurus myosuroides; [10]): 37%
- damage on ALOMY (Alopecurus myosuroides; [11]): 37%
- damage on ALOMY (Alopecurus myosuroides; [12]): 0%
- damage on ALOMY (Alopecurus myosuroides; [13]): 32%
- damage on ALOMY (Alopecurus myosuroides; [14]): 32%
- damage on ALOMY (Alopecurus myosuroides; [15]): 77%
- damage on ALOMY (Alopecurus myosuroides; [16]): 80%
- damage on ALOMY (Alopecurus myosuroides; [17]): 80%
- damage on ALOMY (Alopecurus myosuroides; [18]): 20%
- damage on ALOMY (Alopecurus myosuroides; [19]): 42%
- damage on ALOMY (Alopecurus myosuroides; [20]): 42%
- damage on ALOMY (Alopecurus myosuroides; [21]): 22%
- damage on ALOMY (Alopecurus myosuroides; [22]): 38%
- damage on ALOMY (Alopecurus myosuroides; [23]): 37%
- damage on ALOMY (Alopecurus myosuroides; [24]): 32%
- damage on ALOMY (Alopecurus myosuroides; [25]): 80%
- damage on ALOMY (Alopecurus myosuroides; [26]): 42%
- damage on STEME (Stellaria media [1]; [3]): 32%
- damage on STEME (Stellaria media [1]; [4]): 52%
- damage on STEME (Stellaria media [1]; [5]): 93%
- damage on STEME (Stellaria media [1]; [6]): 12%
- damage on STEME (Stellaria media [1]; [7]): 50%
- damage on STEME (Stellaria media [1]; [8]): 77%
- damage on STEME (Stellaria media [1]; [9]): 90%
- damage on STEME (Stellaria media [1]; [10]): 97%
- damage on STEME (Stellaria media [1]; [11]): 98%
- damage on STEME (Stellaria media [1]; [12]): 38%
- damage on STEME (Stellaria media [1]; [13]): 68%
- damage on STEME (Stellaria media [1]; [14]): 95%
- damage on STEME (Stellaria media [1]; [15]): 100%
- damage on STEME (Stellaria media [1]; [16]): 100%
- damage on STEME (Stellaria media [1]; [17]): 100%
- damage on STEME (Stellaria media [1]; [18]): 67%
- damage on STEME (Stellaria media [1]; [19]): 88%
- damage on STEME (Stellaria media [1]; [20]): 95%
- damage on STEME (Stellaria media [1]; [21]): 93%
- damage on STEME (Stellaria media [1]; [22]): 78%
- damage on STEME (Stellaria media [1]; [23]): 100%
- damage on STEME (Stellaria media [1]; [24]): 98%
- damage on STEME (Stellaria media [1]; [25]): 100%
- damage on STEME (Stellaria media [1]; [26]): 97%
- damage on GERPU (Geranium pusillum; [3]): 57%
- damage on GERPU (Geranium pusillum; [4]): 72%
- damage on GERPU (Geranium pusillum; [5]): 78%
- damage on GERPU (Geranium pusillum; [6]): 75%
- damage on GERPU (Geranium pusillum; [7]): 68%
- damage on GERPU (Geranium pusillum; [8]): 75%
- damage on GERPU (Geranium pusillum; [9]): 92%
- damage on GERPU (Geranium pusillum; [10]): 90%
- damage on GERPU (Geranium pusillum; [11]): 95%
- damage on GERPU (Geranium pusillum; [12]): 78%
- damage on GERPU (Geranium pusillum; [13]): 82%
- damage on GERPU (Geranium pusillum; [14]): 93%
- damage on GERPU (Geranium pusillum; [15]): 98%
- damage on GERPU (Geranium pusillum; [16]): 98%
- damage on GERPU (Geranium pusillum; [17]): 97%
- damage on GERPU (Geranium pusillum; [18]): 78%
- damage on GERPU (Geranium pusillum; [19]): 83%
- damage on GERPU (Geranium pusillum; [20]): 97%
- damage on GERPU (Geranium pusillum; [21]): 73%
- damage on GERPU (Geranium pusillum; [22]): 73%
- damage on GERPU (Geranium pusillum; [23]): 99%
- damage on GERPU (Geranium pusillum; [24]): 96%
- damage on GERPU (Geranium pusillum; [25]): 98%
- damage on GERPU (Geranium pusillum; [26]): 98%
- damage on APESV (Apera spica-venti; [4]): 28%
- damage on APESV (Apera spica-venti; [5]): 28%
- damage on APESV (Apera spica-venti; [7]): 32%
- damage on APESV (Apera spica-venti; [8]): 32%
- damage on APESV (Apera spica-venti; [10]): 47%
- damage on APESV (Apera spica-venti; [11]): 47%
- damage on APESV (Apera spica-venti; [13]): 38%
- damage on APESV (Apera spica-venti; [14]): 38%
- damage on APESV (Apera spica-venti; [16]): 85%
- damage on APESV (Apera spica-venti; [17]): 85%
- damage on APESV (Apera spica-venti; [19]): 55%
- damage on APESV (Apera spica-venti; [20]): 55%
- damage on APESV (Apera spica-venti; [21]): 28%
- damage on APESV (Apera spica-venti; [22]): 45%
- damage on APESV (Apera spica-venti; [23]): 47%
- damage on APESV (Apera spica-venti; [24]): 38%
- damage on APESV (Apera spica-venti; [25]): 85%
- damage on APESV (Apera spica-venti; [26]): 55%
- % activity (Anthemis arvensis; Aminopyralid 7.5 g ai/ha solo, 29 DAT): 77%
- % activity (Anthemis arvensis; Aminopyralid 15 g ai/ha solo, 29 DAT): 94%
- % activity (Anthemis arvensis; Aminopyralid 15 g ai/ha solo, 78 DAT): 96%
- % activity (Stellaria media [2]): 75%
- % activity 28 DAT (Matricaria inodora; aminopyralid 5 g ai/ha solo): 35%
- % activity 28 DAT (Matricaria inodora; aminopyralid 10 g ai/ha solo): 80%
